Values of other authors, collected in patent publication US6392068B1, “Carborane containing cholesterol, a new type of molecule for targeted boron drug delivery” (The University of Georgia Research Foundation, Inc., priority 1999, dated 2002).

Tested on: tumor cell
Conditions: in-vitro; background statement

Substance: Na2B12H11 SH [BSH]
- retention in the tumor cell: does not stay in the tumor cell but is easily washed out
